According to patent US4197288A, “Neuroleptic radioreceptor assay method and kit” (Burroughs Wellcome Co., priority 1977, dated 1980):
Where two headings read alike, the source gives them in different places.

Legend:
[1] = human, in vivo, po
[2] = 0.1 μM drug preincubated with serum 10 min at 37°

SMILES	Drug level recovered in the radioreceptor assay [2] [nM]	also measured
O=C(CCCN1CCC(O)(c2ccc(Cl)cc2)CC1)c1ccc(F)cc1 [Haloperidol]	–	concentration [1]: 10 to 350 nM
CN(C)CCCN1c2ccccc2Sc2ccc(Cl)cc21 [chlorpromazine]	–	Drug level recovered in the radioreceptor assay (1 μM drug preincubated with serum 10 min at 37°): 1000 ± 100 nM
OCCN1CCN(CCCN2c3ccccc3Sc3ccc(C(F)(F)F)cc32)CC1 [fluphenazine]	120 ± 10	–
CN1CCN(CCCN2c3ccccc3Sc3ccc(C(F)(F)F)cc32)CC1 [trifluoperazine]	160 ± 200	–
